Results taken from paper PMC9219098 (ACS Omega, 2022).
Read-outs that look alike come from different tables or passages of the source.

Biological target: AChE (Homo sapiens, UniProt P22303)
Assay: In vitro AChE enzyme assay
Format: biochemical

Sequence of AChE (P22303 32-614): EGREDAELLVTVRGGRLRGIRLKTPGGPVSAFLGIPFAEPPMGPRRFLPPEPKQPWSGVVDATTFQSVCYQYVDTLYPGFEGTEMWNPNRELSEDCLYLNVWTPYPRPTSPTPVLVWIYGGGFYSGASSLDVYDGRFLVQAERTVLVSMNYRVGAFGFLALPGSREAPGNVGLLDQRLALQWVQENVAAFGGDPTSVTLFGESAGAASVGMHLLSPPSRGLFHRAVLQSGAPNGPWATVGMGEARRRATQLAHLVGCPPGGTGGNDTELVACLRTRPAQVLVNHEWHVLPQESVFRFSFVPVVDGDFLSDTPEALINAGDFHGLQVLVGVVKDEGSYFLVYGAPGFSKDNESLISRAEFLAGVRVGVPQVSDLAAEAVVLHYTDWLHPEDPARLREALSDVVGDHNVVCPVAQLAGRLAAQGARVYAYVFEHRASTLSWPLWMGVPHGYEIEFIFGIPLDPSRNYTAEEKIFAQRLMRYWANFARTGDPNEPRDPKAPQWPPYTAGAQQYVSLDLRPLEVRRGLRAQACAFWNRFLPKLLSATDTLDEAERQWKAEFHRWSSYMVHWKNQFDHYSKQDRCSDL

Structure (SMILES)	IC50 [µM]	IC50 (Ellman method, ACTI substrate, mean ± SD, triplicate) [µM]
Cc1cccc(C(=O)C(F)(F)F)c1 [CHEMBL86868, 3′-methyl-2,2,2-trifluoroacetophenone, reference compound]	0.35 ± 0.03	
FC(F)(F)C(F)(F)C(F)(F)C(F)(F)C(F)(F)C(F)(F)F [CHEMBL1200607, perflexane]	50.7 ± 3.73	
COC(F)(F)C(F)(F)C(F)(F)C(F)(F)F [CHEMBL500823, methyl nonafluorobutyl ether]		52.6 ± 4.14
CC(=O)C=Cc1ccc(C(F)(F)F)cc1 [CHEMBL74630, 1-[4-(trifluoromethyl)phenyl]but-1-en-3-one]	26.3 ± 2.18	
O=C(c1ccccc1)C(F)(F)F [CHEMBL293277, trifluoroacetophenone]	4.61 ± 0.34	
